The values below come from ChEMBL document CHEMBL1201862, “PubChem BioAssay data set” (2004).

Test systems include DLD-1; RXF 631; M19-MEL; LXFL 529; SNB-78; HOP-18; KM-20L2; DMS-114; BT-549.
Experiment in all cases: inhibition of tumour cell growth, NCI panel, 48 h

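All cell lines were grown in 96-well plates and treated with compound for 48 hours. GI50 is the concentration that inhibits growth by half.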 Active and inactive are the calls of the source. No stated cut-off is given here; in the data, active = GI50 up to about 1.1 µM and inactive = higher.

Turning to `C[C@@H]1[C@H](c2ccccc2)O[B-]2(c3ccc(Br)cc3)OC(=O)C[N+]12C` (stereo partly specified), the GI50 was > 100 µM (inactive) with DLD-1; > 100 µM (inactive) in the experiment on RXF 631; > 100 µM (inactive) in the experiment on M19-MEL; 86.5 µM (inactive) in the experiment with LXFL 529; 35.4 µM (inactive) with SNB-78; > 100 µM (inactive) in the experiment with HOP-18. The GI50 in the experiment on KM-20L2 and in the experiment with DMS-114 was > 100 µM (inactive) in each case.
Take `COc1ccc(C2C(C)C(=O)C(C)C(c3ccc(OC)cc3)N2N=O)cc1` (stereo unspecified): the GI50 in the experiment on DLD-1 is > 1000 µM (inactive); in the experiment with RXF 631, > 95.3 µM (inactive); in the experiment with M19-MEL it was > 750 µM (inactive); in the experiment on LXFL 529, > 750 µM (inactive); in the experiment with SNB-78, 121 µM (inactive); in the experiment on HOP-18, > 100 µM (inactive). Further, the GI50 is > 925 µM (inactive) in the experiment on KM-20L2 and > 750 µM (inactive) in the experiment with DMS-114.
In the case of `COC1N(C2CC(O)C(CO)O2)C(=O)NC(=O)C1(F)Br` (stereo unspecified), the GI50 in the experiment on DLD-1 is 16.5 µM (inactive); with RXF 631 it was 6.84 µM (inactive); in the experiment on LXFL 529, 24.4 µM (inactive); in the experiment with SNB-78, > 50 µM (inactive); in the experiment on HOP-18 it was > 50 µM (inactive); with KM-20L2 it was 16.6 µM (inactive). For the same compound, the GI50 was 25 µM (inactive) with BT-549 and 43.9 µM (inactive) with DMS-114.
For the compound `C=C1CC2CC(O)CC(C1)C2` (stereo unspecified), the GI50 in the experiment with DLD-1, with M19-MEL, with LXFL 529, with SNB-78, in the experiment with HOP-18 and in the experiment with KM-20L2 was > 100 µM (inactive) each time. In the experiment with DMS-114, the GI50 was > 100 µM (inactive).
For the compound `CCCCC(C(=O)CCC(=O)Nc1ccc(Cl)c(Cl)c1)C(=O)C(C)C` (stereo unspecified), the GI50 in the experiment with DLD-1 is > 100 µM (inactive); in the experiment on M19-MEL it was > 100 µM (inactive); in the experiment on LXFL 529 it was 34.8 µM (inactive); with SNB-78, > 100 µM (inactive); with HOP-18, > 100 µM (inactive); with KM-20L2, > 100 µM (inactive). The GI50 in the experiment with DMS-114 was > 100 µM (inactive).
For `Cc1cnc(NCCCN(C)C)c2c1[nH]c1ccc3cc(O)ccc3c12`, the GI50 in the experiment on DLD-1 is 0.49 µM (active); in the experiment with M19-MEL it was 0.383 µM (active); in the experiment on LXFL 529 it was 0.142 µM (active); in the experiment with SNB-78 it was 0.929 µM (active); in the experiment with HOP-18, 1.43 µM (inactive); in the experiment on KM-20L2, 0.266 µM (active). For the same compound, the GI50 in the experiment on BT-549 is 1.52 µM (inactive); with DMS-114 it was 0.0962 µM (active).
Take `Cc1cc(-c2c(F)cc3c4nn([C@H]5CC[C@@H](N(C)C)CC5)c(=O)c-4cn(C4CC4)c3c2F)cc(C)n1`: the GI50 is 0.0428 µM (active) with DLD-1; 0.0355 µM (active) in the experiment with RXF 631; 0.0891 µM (active) with M19-MEL; 0.0528 µM (active) with LXFL 529; 0.28 µM (active) in the experiment on SNB-78; 0.197 µM (active) with HOP-18. Further, the figures for the GI50 in the experiment with KM-20L2, in the experiment with BT-549 and in the experiment on DMS-114 were 0.14 µM (active), 0.479 µM (active) and 0.024 µM (active), respectively.
As to `CC(=O)O[C@H]1C(=O)[C@@]2(C)[C@H]([C@H](OC(=O)c3ccccc3)[C@]3(O)C[C@H](OC(=O)[C@H](O)[C@@H](NC(=O)c4ccccc4)c4ccccc4)C(C)=C1C3(C)C)[C@]1(OC(C)=O)CO[C@@H]1C[C@@H]2O` [PACLITAXEL], the GI50 with DLD-1 was 0.0448 µM (active); in the experiment on LXFL 529, 0.528 µM (active); in the experiment with SNB-78, 0.00982 µM (active); with HOP-18, 0.157 µM (active); with BT-549, 0.0327 µM (active).
With `Nc1ncc(CN2CCCC2)c(-c2ccccc2O)n1`, the GI50 in the experiment on DLD-1 is > 750 µM (inactive); in the experiment with M19-MEL it was > 750 µM (inactive); in the experiment on LXFL 529, > 750 µM (inactive); with HOP-18 it was 433 µM (inactive); in the experiment on KM-20L2, > 750 µM (inactive); in the experiment on DMS-114 it was > 750 µM (inactive).
With `CC(C)C12C=CC(C)(CC1)n1c(=O)c3cc4ccccc4cc3c(=O)n12` (stereo unspecified), the GI50 with DLD-1 was 38.7 µM (inactive); in the experiment with RXF 631, 54.3 µM (inactive); in the experiment with M19-MEL it was 66.8 µM (inactive); with LXFL 529, 34 µM (inactive); in the experiment with SNB-78, > 100 µM (inactive); with KM-20L2, 31.7 µM (inactive). In addition, in the experiment with DMS-114, the GI50 is 41.9 µM (inactive).
Turning to `CCCCCCCCCCCCCC(=O)OCC1OC(=O)CC1O` (stereo unspecified), the GI50 was 34.8 µM (inactive) in the experiment on DLD-1; > 100 µM (inactive) in the experiment with RXF 631; > 100 µM (inactive) with LXFL 529; 56.1 µM (inactive) with SNB-78; 0.437 µM (active) in the experiment with HOP-18; > 100 µM (inactive) with KM-20L2. For the same compound, in the experiment with DMS-114, the GI50 was 49.4 µM (inactive).
As to `C=CCCCCCCCCC(=O)NS(=O)(=O)c1ccccc1`, the GI50 with DLD-1 was 96.6 µM (inactive); in the experiment on RXF 631 it was > 100 µM (inactive); in the experiment with M19-MEL it was > 100 µM (inactive); in the experiment with LXFL 529 it was > 100 µM (inactive); with SNB-78, > 100 µM (inactive); in the experiment on HOP-18, 40.9 µM (inactive). In addition, the GI50 in the experiment on KM-20L2 and in the experiment with DMS-114 was > 100 µM (inactive) in each case.
Regarding `COc1ccc(C=O)c([N+](=O)[O-])c1`, the GI50 was 57.7 µM (inactive) in the experiment on RXF 631; 63.5 µM (inactive) in the experiment on M19-MEL; 42.4 µM (inactive) with SNB-78; 38.8 µM (inactive) in the experiment on HOP-18; 14 µM (inactive) in the experiment with KM-20L2; 24 µM (inactive) with DMS-114.
On to `COc1cc(-c2cccs2)sc1-c1cccs1`, for which the GI50 is 8.17 µM (inactive) in the experiment on DLD-1; 32.8 µM (inactive) in the experiment on M19-MEL; 45 µM (inactive) with LXFL 529; 36.2 µM (inactive) with SNB-78; 1.58 µM (inactive) with HOP-18; 26.7 µM (inactive) in the experiment with KM-20L2. Further, the GI50 in the experiment on DMS-114 is 30 µM (inactive).
For `S=c1sc2c(Cl)nc(Cl)nc2n1-c1ccccc1`, the GI50 was 16.2 µM (inactive) with DLD-1; 16.4 µM (inactive) in the experiment on M19-MEL; 17.9 µM (inactive) in the experiment on LXFL 529; 13.3 µM (inactive) with SNB-78; > 100 µM (inactive) in the experiment on HOP-18; 52.6 µM (inactive) in the experiment on KM-20L2. Further, the GI50 in the experiment on DMS-114 is 14.2 µM (inactive).
Consider `Nc1nc(N)c2ncn(CCCC(c3ccccc3)P(=O)(O)O)c2n1` (stereo unspecified), for which the GI50 in the experiment on DLD-1, in the experiment on M19-MEL, in the experiment on LXFL 529, with SNB-78, in the experiment on HOP-18 and with KM-20L2 was > 100 µM (inactive) throughout. In addition, the GI50 in the experiment with DMS-114 was > 100 µM (inactive).
For the compound `CC1(CO)OC1COCc1ccccc1` (stereo unspecified), the GI50 in the experiment on DLD-1, in the experiment on RXF 631, with LXFL 529, in the experiment with SNB-78, with KM-20L2 and in the experiment on DMS-114 was > 100 µM (inactive) in each case.
Take `CCCCCCCCCCCCCCCC(=O)OCC1OC(n2cc(F)c(=O)[nH]c2=O)C(NC(=O)N(CCCl)N=O)C(O)C1O` (stereo unspecified): the GI50 in the experiment on DLD-1 is 2.84 µM (inactive); in the experiment with RXF 631, 3.08 µM (inactive); with M19-MEL, 2.82 µM (inactive); in the experiment on LXFL 529 it was 5.3 µM (inactive); with SNB-78, 3.85 µM (inactive); with HOP-18, 16.4 µM (inactive). In addition, the GI50 in the experiment with KM-20L2 was 5.15 µM (inactive); in the experiment with DMS-114 it was 1.12 µM (inactive).
As to `CSC(=N\c1ccccc1)/N=C(\SCc1ccccc1)N(C)C`, the GI50 in the experiment on RXF 631 is 1.38 µM (inactive); in the experiment on M19-MEL, 1.66 µM (inactive); in the experiment on LXFL 529, 0.454 µM (active); with SNB-78, 1.63 µM (inactive); in the experiment on HOP-18, 0.774 µM (active); in the experiment with BT-549, 1.42 µM (inactive). Further, in the experiment with DMS-114, the GI50 is 1.09 µM (active).
`CC(C)c1ccccc1NC(=O)/C(Cl)=C1/Sc2ccccc2NC1=O`: the GI50 in the experiment with DLD-1 was 35.5 µM (inactive); with RXF 631, 34 µM (inactive); in the experiment with M19-MEL, 34 µM (inactive); in the experiment on LXFL 529, 14.5 µM (inactive); in the experiment on SNB-78 it was 30.5 µM (inactive); in the experiment with KM-20L2 it was 24.2 µM (inactive). Further, the GI50 in the experiment on DMS-114 was 18.5 µM (inactive).
On to `CC(=O)NNc1nc(C)c(C(=O)NNC(=O)C(=O)Nc2ccc(C)cc2[N+](=O)[O-])s1`, for which the GI50 with DLD-1 is > 100 µM (inactive); in the experiment with RXF 631, > 100 µM (inactive); with M19-MEL, 60.4 µM (inactive); in the experiment with LXFL 529, > 100 µM (inactive); in the experiment with SNB-78 it was > 100 µM (inactive); in the experiment with HOP-18 it was > 100 µM (inactive). Further, the GI50 in the experiment with KM-20L2 and in the experiment on DMS-114 was > 100 µM (inactive) each time.
With `C=CCc1cc(-c2cc(CC=C)c(O)c(CN(CC)CC)c2)cc(CN(CC)CC)c1O`, the GI50 was 70.1 µM (inactive) in the experiment on DLD-1; 14.6 µM (inactive) in the experiment with RXF 631; 18.3 µM (inactive) with M19-MEL; 46.6 µM (inactive) in the experiment with LXFL 529; > 100 µM (inactive) in the experiment on SNB-78; > 100 µM (inactive) in the experiment on HOP-18. Moreover, the GI50 in the experiment with KM-20L2 was 14.5 µM (inactive); in the experiment on BT-549 it was > 49.2 µM (inactive); in the experiment with DMS-114, > 52.6 µM (inactive).
`COc1ccc(C2Oc3c(cc(O)c(OC)c3C)[C@@H]2C)cc1OC` (stereo partly specified): the GI50 was > 100 µM (inactive) in the experiment with DLD-1; > 100 µM (inactive) in the experiment on RXF 631; 86.1 µM (inactive) in the experiment with M19-MEL; 65.9 µM (inactive) in the experiment with LXFL 529; 69.8 µM (inactive) in the experiment with SNB-78; > 100 µM (inactive) in the experiment with HOP-18. Moreover, the figures for the GI50 with KM-20L2 and with DMS-114 were > 100 µM (inactive) and 33 µM (inactive), respectively.
Take `CCOC(=O)C1S/C(=N/c2ccc(Cl)cc2C)N=C1C` (stereo unspecified): the GI50 in the experiment with DLD-1 is 15.1 µM (inactive); with RXF 631, 21.1 µM (inactive); in the experiment on M19-MEL it was 20 µM (inactive); in the experiment with LXFL 529, 18 µM (inactive); in the experiment with SNB-78, 20.4 µM (inactive); in the experiment with HOP-18 it was 45.8 µM (inactive). For the same compound, the GI50 in the experiment on KM-20L2 is 17.4 µM (inactive); in the experiment with DMS-114, 12.9 µM (inactive).
